Assay results taken from US20240398774A1, “METHODS OF TREATING INFLAMMATORY DISEASES WITH A SELECTIVE GLUCOCORTICOID RECEPTOR MODULATOR” (ASTRAZENECA AB, priority 2021, published 2024).
One block for each molecule: values may come before it.

What was measured:
joint inflammation = test: rat model of joint inflammation; type: in vivo; details: compared with prednisolone
[1] = plasma pharmacokinetics in diabetic patients; type: in vivo, human; details: oral dosing
Description: Study design. This was a randomized, double blind, multi-center, double dummy, and two-way cross-over study. The aim of the study was to compare the effect on glycaemic control and incretin response at equipotent doses of AZD9567 and prednisolone in diabetes patients. The AZD9567 and prednisolone doses were predicted to be equipotent, based on an ex vivo efficacy analysis from previous phase 1 studies. The study consisted of a total of three cohorts. Each cohort was treated for two 72-hour periods in a cross-over design, with a 3-week washout period between treatment periods as illustrated in FIG. 1. The total length of participant engagement (from screening to follow-up) is 79 days. […]

[2] = test system: hypothalamic-pituitary-adrenal (HPA) axis; test: morning serum cortisol and adrenocorticotropic hormone in type 2 diabetes patients; type: in vivo, human
Description: (§1) Study design. This was a randomized, double blind, multi-center, double dummy, and two-way cross-over study. The aim of the study was to compare the effect on glycaemic control and incretin response at equipotent doses of AZD9567 and prednisolone in diabetes patients. The AZD9567 and prednisolone doses were predicted to be equipotent, based on an ex vivo efficacy analysis from previous phase 1 studies. The study consisted of a total of three cohorts. Each cohort was treated for two 72-hour periods in a cross-over design, with a 3-week washout period between treatment periods as illustrated in FIG. 1. The total length of participant engagement (from screening to follow-up) is 79 days.
Cohort 1 included 27 patients. The patents were randomized in a ratio of 1:1 to receive 72 mg/day (oral suspension) AZD9567 and 40 mg/day prednisolone over two 72 hour periods in a cross over design: 72 mg AZD9567 for 3 consecutive days of each treatment period followed by 40 mg prednisolone for 3 consecutive days of each treatment period [AB sequence group], or 40 mg prednisolone for 3 consecutive days of each treatment period followed by 72 mg AZD9567 for 3 consecutive days of each treatment period [BA sequence group]. […]

[3] = Mixed Meal Tolerance Test (MMTT) in type 2 diabetes patients, clinical trial NCT04556760; type: in vivo, human; details: for MMTT-stimulated insulin secretion / glucagon secretion after MMTT: Cohort 1, Day 4
Description: (§2) Patient population. In clinical trial NCT04556760, eligible patients were 18 to 75 years old. Eligible patients had diagnosis of type 2 diabetes mellitus for 6 months prior to screening, such as HbAlc in the diabetes range or fasting plasma glucose 126-220 mg/dL. Eligible patients were on stable metformin therapy for at least 4 weeks, where no significant dose change (increase or decrease≥500 mg/day) has occurred prior to screening and HbAlc 6%-9.5%, or on dual therapy with metformin in combination with SGLT2i or DPP4i and HbAlc 6%-8%. Participants on dual therapy required 2 weeks wash-out of SGLT2i or DPP4i.
as §1
(§3) Cohort 1 included 27 patients. The patents were randomized in a ratio of 1:1 to receive 72 mg/day (oral suspension) AZD9567 and 40 mg/day prednisolone over two 72 hour periods in a cross over design: 72 mg AZD9567 for 3 consecutive days of each treatment period followed by 40 mg prednisolone for 3 consecutive days of each treatment period [AB sequence group], or 40 mg prednisolone for 3 consecutive days of each treatment period followed by 72 mg AZD9567 for 3 consecutive days of each treatment period [BA sequence group].
MMTT provides a fixed composition of protein, carbohydrates and fat, and is meant to mimic “normal” meal. It generally consists of 30.2 g protein, 19.6 g of fat, 75 g of carbohydrates with 6.6. g of fiber, totaling 612 kCal. It requires a standardized dinner the night before the test, 12 h fasting prior to the test, and standardized breakfast consumed (<30 min) at 7 AM (solid meal) consisting of pre-determined quantities of carbohydrates, proteins and fats. Sampling is done at −15, 10, 20, 30, 60, 75, 120, 180, and 240 min.
The primary endpoint was change in glucose AUC (0-4 h) versus baseline compared to prednisolone following a standardized mixed meal tolerance test (MMTT) on Days −1, 4, 27, and 31. The change from baseline in glucose AUC (0-4 h) was analyzed using a mixed model repeated measures (MMRM) with baseline included as covariate. […]

[4] = test system: transcription of tyrosine aminotransferase (TAT); test: TAT transcription in human hepatocytes in vitro; type: cell-based; details: for upregulation of transcription of tyrosine aminotransferase (TAT): human hepatocytes in vitro
[5] = Continuous Glucose Monitoring (CGM) in type 2 diabetes patients, clinical trial NCT04556760; type: in vivo, human
Description: as §2, §1, §3
Cohort 2 included 8 patients. The patents were randomized in a ratio of 1:1 to receive 40 mg/day (oral suspension) AZD9567 and prednisolone over two 72 hour periods in a cross over design: 40 mg AZD9567 for 3 consecutive days of each treatment period followed by 20 mg prednisolone for 3 consecutive days of each treatment period [AB sequence group] or 20 mg prednisolone for 3 consecutive days of each treatment period followed by 40 mg AZD9567 for 3 consecutive days of each treatment period [BA sequence group].
Cohort 3 included 9 patients. The patents were randomized in a ratio of 1:1 to receive placebo and 5 mg/day prednisolone over two 72 hour periods in a cross over design: placebo for 3 consecutive days of each treatment period followed by 5 mg prednisolone for 3 consecutive days of each treatment period [AB sequence group] or 5 mg prednisolone for 3 consecutive days of each treatment period followed by placebo for 3 consecutive days of each treatment period [BA sequence group]).
CGM includes a normal diet and is reflective of daily glucose control under “real world” conditions. […]

[6] = test system: lipopolysaccharide (LPS)-stimulated tumour necrosis factor-α (TNFα) release; test: ex vivo inhibition of LPS-stimulated TNFα release in human whole blood; type: cell-based; details: compared with prednisolone
[7] = safety and clinical outcomes in patients; type: in vivo, human

elimination half-life in diabetic patients as compared to healthy volunteers in phase 1 study [1]: increased
systemic exposure in diabetic patients as compared to healthy volunteers in phase 1 study [1]: higher
effect on prednisolone-induced upregulation of TAT transcription ([4]; coadministered with prednisolone in primary human hepatocytes): dose-dependently reduces
upregulation of transcription of tyrosine aminotransferase (TAT) [4]: does not upregulate
Structure (SMILES): CC(C)[C@H](NC(=O)C(C)(F)F)[C@H](Oc1ccc2c(cnn2-c2ccc(=O)n(C)c2)c1)c1ccccc1 [AZD9567, 2,2-difluoro-N-[(1R,2S)-3-methyl-1-[1-(1-methyl-6-oxopyridin-3-yl)indazol-5-yl]oxy-1-phenylbutan-2-yl]propanamide]
anti-inflammatory effects in vivo in a rat model of joint inflammation (joint inflammation): similar
adrenocorticotropic hormone (ACTH) concentrations ([2]; Cohort 1, change from baseline): indicative of preserved hypothalamic-pituitary-adrenal (HPA) axis capacity
cortisol change during treatment ([2]; Cohort 1, returning to baseline at follow-up): marked, target-related, reversible cortisol suppression
difference in reduction of glucose AUC0-4h after MMTT (AZD9567 vs prednisolone) ([3]; Cohort 1, 24 h after last dose (Day 4), 95CI 0.01, 8.88, p=0.05): 4.54%
MMTT-stimulated insulin secretion [3]: increased
glucagon secretion after MMTT [3]: unaffected
insulin:glucagon ratio ([3]; Cohort 1, MMTT, vs prednisolone): marked improvement
absolute difference in reduction of glucose AUC0-4h after MMTT (AZD9567 vs prednisolone) ([3]; Cohort 1, 95% CI 9.40, 256.1, p=0.036): 132.95 mmol·min/L
increase in mean daily glucose relative to glycaemic targets for type 2 diabetes patients (70-180 mg/dl) ([5]; Cohort 1, 72 mg/day): within glycaemic targets
HbAlc difference corresponding to mean daily glucose difference between AZD9567 and prednisolone ([5]; Cohort 1, 48-72 h, based on estimated Average Glucose (eAG) equation): 0.7%
mean daily glucose increase as compared to prednisolone ([5]; Cohort 1: 72 mg/day AZD9567 vs 40 mg/day prednisolone): significantly lower
differentiation on glycaemic control versus prednisolone (CGM) ([5]; Cohort 1: 72 mg/day AZD9567 vs 40 mg/day prednisolone, 3 days): clear and consistent differentiation
HbAlc difference corresponding to mean daily glucose difference between AZD9567 and prednisolone ([5]; Cohort 2, lower dose, based on eAG equation): 0.4%
mean daily glucose increase as compared to prednisolone ([5]; Cohort 2: 40 mg/day AZD9567 vs 20 mg/day prednisolone): lower
differentiation on glycaemic control versus prednisolone (CGM) ([5]; Cohort 2: 40 mg/day AZD9567 vs 20 mg/day prednisolone, relative to Cohort 1): lower
observed difference in mean daily glucose (CGM) vs prednisolone ([5]; at 48-72 hrs, Target Value 1.221 mmol/L, Lower Reference Value 0.599 mmol/L): 1.507 mmol/L
inhibition of LPS-stimulated TNFα release [6]: similar
safety concerns following the analysis of Cohort 1 ([7]; Cohort 1, 72 mg/day for 3 days): No significant new safety concerns
rate of treatment intensification (dose increase of current oral antidiabetic therapy, or start/addition of insulin) as compared to prednisone ([7]; diagnosed diabetic patients): lower rate
incidence of hospitalization vs prednisone ([7]; heart failure patients): lower incidence
incidence of progression to type 2 diabetes mellitus as compared to prednisone ([7]; population predisposed to type 2 diabetes mellitus): lower incidence

systemic exposure in diabetic patients as compared to healthy volunteers in phase 1 study [1]: higher
upregulation of transcription of tyrosine aminotransferase (TAT) [4]: upregulation
Structure (SMILES): C[C@]12C=CC(=O)C=C1CC[C@@H]1[C@@H]2[C@@H](O)C[C@@]2(C)[C@H]1CC[C@]2(O)C(=O)CO [prednisolone, reference compound]
MMTT-stimulated insulin secretion [3]: lower
glucagon secretion after MMTT [3]: increased
differentiation on glycaemic control vs placebo on CGM ([5]; Cohort 3: 5 mg/day prednisolone vs placebo): No differentiation
